Experimental data published in patent publication US9006205B2, “Antisense oligonucleotides against neutral sphingomyelinase and neutral sphingomyelinase inhibitor GW4869 for degenerative neurological disorders” (Rush University Medical Center, priority 2011, dated 2015).

Columns and labels:
primary human neurons = assay: TUNEL apoptosis of neurons challenged by (fibrillar Aβ+IL-1β)-activated astrocytes, astrocyte-neuron trans-well; assay type: cell-based; conditions: neurons pretreated 40 h with 1 μM oligonucleotide; 6 h with (fibrillar Aβ+IL-1β)-activated astrocytes
Experimental: Primary human astrocytes were grown to confluency on inserts. After 24 h of stimulation by the combination of Aβ (1 μM) and IL-Iβ (10 ng/ml), inserts were washed thrice with HBSS and then placed onto the wells containing primary human neurons. Therefore, in this trans-well model, although neurons and astrocytes face each other, they are separable and the effect of soluble factors released from activated astrocytes on neurons can be studied allowing analysis of neuronal and glial populations separately.
Fragmented DNA was detected in situ by the terminal deoxynucleotidyltransferase-mediated binding of 3′-OH ends of DNA fragments generated in response to fibrillar Aβ1-42, using a commercially available kit (TdT FragEL™) from Calbiochem. […]
Primary human neurons were incubated with antisense (ASO) and scrambled oligonucleotides (ScO) against N-SMase (A) and A-SMase (FIG. 2B). After 48 h, neurons were analyzed for protein expression of N-SMase and A-SMase. […] After 6 h of treatment with activated astrocytes, apoptotic events in neurons were detected by TUNEL. In FIG. 2D, TUNEL-positive cells were counted manually in four different images of each of three coverslips by three individuals blinded to the experiment. […] Values obtained from the control group served as 100%, and data obtained in other groups were calculated as percent of control accordingly. […]

A-SMase [1] = assay: Western blot of A-SMase protein after antisense knockdown in primary human neurons; assay type: cell-based; conditions: 48 h with oligonucleotide
Experimental: Because these ASOs have become a very critical part of our study, the efficacy of N-SMase and A-SMase ASOs in inhibiting the protein expression of N-SMase and A-SMase was checked by western blot. […] Next, the effect of antisense knockdown of neuronal N-SMase and/or A-SMase on activated glia-induced neuronal apoptosis by TUNEL was investigated. […] As evidenced by a decrease In MTT metabolism, activated astroglia reduced neuronal viability (FIG. 2E).
Primary human neurons were incubated with antisense (ASO) and scrambled oligonucleotides (ScO) against N-SMase (A) and A-SMase (FIG. 2B). After 48 h, neurons were analyzed for protein expression of N-SMase and A-SMase. In FIG. 2C, primary human astrocytes seeded in inserts were stimulated by the combination of Aβ and IL-1β as described above. […] After 6 h of treatment with activated astrocytes, apoptotic events in neurons were detected by TUNEL. In FIG. 2D, TUNEL-positive cells were counted manually in four different images of each of three coverslips by three individuals blinded to the experiment. In FIG. 2E, after 18 h of stimulation, cell viability was examined by the metabolism of MTT and the release of LDH. […] Cell viability was checked by MTT (FIG. 2F) and LDH (FIG. 2G). Values obtained from the control group served as 100%, and data obtained in other groups were calculated as percent of control accordingly. […]

iNOS, GFAP and CD11b = assay: Immunofluorescence of iNOS, GFAP and CD11b in the cortex of Aβ-microinjected mice; assay type: in vivo, C57/BL6 mice; conditions: cortex, 6 h (and 24 h) of microinjection
Experimental: […], mice were perfused with 4% paraformaldehyde and their brains were processed for immunohistochemical studies. For double labeling of GFAP with iNOS, sections (6 μm) were incubated with polyclonal anti-GFAP (GFAP: 1000 dilution; Calbiochem) and anti-iNOS (iNOS: 1000 dilution; Calbiochem) for 24 h at 4° C. After three washes in PBST (15 min each), slides were further incubated with Cy5 and Cy2 (Jackson ImmunoResearch Laboratories, Inc.) secondary antibodies for 2 h at room temperature. For negative controls, a set of tissue sections was incubated under similar conditions without the primary antibodies. The samples were mounted and observed under a Bio-Rad MRC1024ES confocal laser scanning microscope.
After 6 h of Aβ microinjection, mice were perfused and double immunofluorescence for GFAP (green) and iNOS (red) (FIG. 8A) and CD 11b (green) and iNOS (red) (FIG. 8B) was performed.

ceramide = assay: Ceramide level in vivo in the cortex (DAG kinase assay); parameters: species or system C57/BL6 mice
Experimental: After treatment, lipids were extracted from cells as described previously. Ceramide content was quantified using diacylglycerol (DAG) kinase and [γ-^32P] ATP as described earlier. Briefly, dried lipids were solubilized in 20 μl of an octyl β-D-glucoside/cardiolipin solution (7.5% octyl β-D-glucoside, 5 mM cardiolipin in 1 mM diethylenetriaminepentaacetic acid) by sonication in a sonicatorbath. The reaction was then carried out in a final volume of 100 μl containing the 20-μl sample solution, 50 mM imidazole HQ, pH 6.6, 50 mM NaCl, 12.5 mM MgCl2, 1 mM EGTA, 2 mM dithiothreitol, 6.6 μg of DAG kinase, and 1 mM [γ-^32P] ATP (specific activity of 1-5×10^5 cpm/nmol) for 30 min at room temperature. The labeled ceramide-1-phosphate was resolved with a solvent system consisting of methyl acetate:n-propyl alcohol:chloroform:methanol:0.25% KQ in water:acetic acid (100:100:100:40:36:2). […] Quantification of ceramide-1-phosphate was carried out by autoradiography and densitometry scanning using a Fluor Chem 8800 imaging system (Alpha Innotech Corporation). Values are expressed either as arbitrary units (absorbance) or as percent of control, considering control as 100%. […]
Control mice received saline injection. […] Control (saline—6 h) group served as 100%, and data from other groups were expressed as percentage of control. […]

primary human astrocytes = assay: GFAP and iNOS double-labeling of primary human astrocytes stimulated with Aβ peptides; assay type: cell-based; conditions: peptide stimulation for 24 h
Experimental: In FIG. 5A, primary astrocytes were stimulated with fibrillar Aβ1-42, oligomeric Aβ1-42 and reverse peptide Aβ42-1 for 24 h followed by double-labeling of GFAP and iNOS. In FIG. 5B, primary human astrocytes seeded in inserts were stimulated with a combination of I μM of oligomeric Aβ1-42 and 10 ng/ml of IL-Iβ in serum free media. […] After 6 h, neuronal apoptosis was monitored by TUNEL. In FIG. 5C, TUNEL-positive cells were counted manually in four different images of each of three coverslips by three individuals blinded to the experiment. Values obtained from the control group (1) served as 100%, and data obtained from other three groups i.e. the oligomeric Aβ-activated astrocytes (OAA) group (2), the ASO-OAA group (3), and the ScO-OAA group (4) was calculated as percent of control accordingly. Results are mean+S.D. of three different experiments. ^ap<0.001 vs control; ^bp<0.001 vs OAA.

primary human astroglia = assay: NO synthesis (nitrite, Griess reagent) in primary human astroglia; assay type: cell-based; conditions: primary human astroglia, level comparable to IL-1β
Experimental: Synthesis of NO was determined by assay of culture supernatants for nitrite, a stable reaction product of NO with molecular oxygen, using Griess reagent as described.
After 24 h of stimulation, the concentration of nitrite was measured in supernatants (FIG. 4A) by Griess reagent. […] Cells were treated with ASO/ScO for 40 h followed by stimulation with the combination of fibrillar Aβ and IL-Iβ as above. After 6 h, the expression of iNOS mRNA was analyzed by both semi-quantitative RT-PCR (C) and quantitative real-time PCR (FIG. 4D). The expression of TNF-a, IL-6 and IL-Iβ mRNAs were analyzed by semi-quantitative RT-PCR (FIG. 4E). Results are mean±SD of three different experiments. ^ap<0.001 vs control; ^bp<0.001 vs (Aβ+IL-Iβ).

N-SMase = N-SMase activity in vivo in the cortex after microinjection; parameters: species or system C57/BL6 mice
Experimental: (§1) Activities of SMase(s) were assayed as described by. Briefly, after treatment, the cells were washed with PBS, harvested in PBS, divided into two halves, and centrifuged. The fraction for N-SMase was resuspended in buffer A (100 mM Tris-HCl, pH 7.4, 0.1% Triton X-100, 1 mM EDTA, and protease inhibitors), and the cell suspension was sonicated and centrifuged at 500×g at 4° C. for 5 min. The supernatant was used as the enzyme source for N-SMase. The reaction mixture contained enzyme preparation in buffer A containing 5 nmol of [^14C] sphingomyelin, 5 nmol of phosphatidylserine, 5 mM dithiothreitol, and 5 mM MgC¾ in a final volume of 100 μl. Similarly, the fraction for A-SMase was resuspended in buffer B (100 mM sodium acetate, pH 5.0, 0.1% Triton X-100, and protease inhibitors). The cell suspension was sonicated and centrifuged. The supernatant was used as the source of A-SMase. The activity of A-SMase was measured in a 100-μl reaction mixture consisting of the enzyme preparation in buffer B and 5 nmol of [^14C] sphingomyelin. The enzyme reaction was initiated by the addition of 50 μl of substrate and stopped by the addition of 1.5 ml of chloroform:methanol (2:1, v/v) and 0.2 ml of water. After vortexing and phase separation, the aqueous phase was removed for counting.
(§2) Control mice received saline injection. At indicated time points, cortex was dissected out and divided into two halves—one half for measuring activities of N-SMase (FIG. 7B) and A-SMase (FIG. 7C) and the other for assaying ceramide (FIG. 7D). Control (saline—6 h) group served as 100%, and data from other groups were expressed as percentage of control. Results are mean+SD of five different mice (n=5). ^ap<0.05 vs saline—6 h.

A-SMase [2] = assay: A-SMase activity in vivo in the cortex after microinjection; parameters: species or system C57/BL6 mice
Experimental: as §1, §2

[3] = test system: neurons (NeuN-positive cells); assay: TUNEL/NeuN neuronal apoptosis in vivo in the cortex of Aβ-microinjected mice

Substance: 5′- GACATCTCGGAGCCGGGGCA -3′ (DNA, all phosphorothioate, methylation of C not given here) [ASO against A-SMase, ID; NO.: 14]
- protection of neurons from activated astrocyte-induced apoptosis (TUNEL) (primary human neurons): failed to rescue neurons
- level of A-SMase protein (A-SMase [1]): suppressed

Substance: fibrillar Aβ1-42: human Aβ peptide (1-42), Bachem, incubated at 50 μM at 37° C. for 5 days
- glial expression of iNOS (GFAP-positive astrocytes, CD11b-positive microglia) and GFAP after Aβ microinjection (iNOS, GFAP and CD11b): induced
- glial expression of iNOS (GFAP-positive astrocytes, CD11b-positive microglia) and GFAP after Aβ microinjection (iNOS, GFAP and CD11b; listed as Aβ): marked increase
- increase in the ceramide level in the cortex (ceramide; after 6 h): about 3 fold
- increase in the ceramide level in the cortex (ceramide; after 12 h): about 4 fold
- astroglial iNOS protein and GFAP (primary human astrocytes): induced the expression of iNOS protein and increased the level of GFAP
- production of NO by the stimulus alone (primary human astroglia): capable of inducing
- activation of N-SMase in the cortex compared to saline microinjection (N-SMase; 1 μg peptide, over the time course): marked increase
- increase in the activity of N-SMase in the cortex (N-SMase; 6 h of microinjection, 1 μg peptide): More than 3 fold
- activity of N-SMase in the cortex, in words (N-SMase; 12 h of microinjection): increased further
- increase in the activity of N-SMase in the cortex compared to saline (N-SMase; 12 h of microinjection, 1 μg peptide): more than 300%
- activity of N-SMase in the cortex, in words (N-SMase; 24 h of microinjection): decreased
- increase in the activity of N-SMase in vivo in the cortex compared to saline (N-SMase; antisense experiment, Aβ alone): more than 4 fold
- activity of A-SMase in the cortex (A-SMase [2]; 1 μg peptide microinjected, same setting as N-SMase): unable to increase
- increase in the activity of A-SMase after Aβ microinjection (A-SMase [2]; antisense experiment, Aβ alone): about 35%
- apoptotic death of neurons in vivo in the cortex after Aβ microinjection ([3]; 24 h after microinjection): markedly induced
- apoptosis in neurons (NeuN-positive cells) after Aβ microinjection ([3]; within 6 h of microinjection): unable to induce any apoptosis
